In US5342853A, “Method of using nor-verapamil and nor-gallopamil as anti-arteriosclerotics” (priority 1989, dated 1994):

How the values were obtained:
[1] = Antiatherogenic action on rabbits: carotid atheromas induced by electrical stimulation plus cholesterol-rich diet, 28 days; type: in vivo, male rabbits; settings: rabbit, in vivo; rabbits, oral part of the daily dose (given with s.c. doses); read-out: Highest tolerated daily dose, oral
Protocol: (§1) Local atheromas are induced by the method of E. Betz and W. Schlote (Basic Res. Cardiol. 1979, 74, 10-20) by electrical stimulation of the carotid artery while, at the same time, feeding a cholesterol-rich diet (2%). At the end of the test period, the atheromas formed under the anode of the stimulating electrodes are removed and their size is determined histologically. Used as a measure of the size of the atheromas is the maximum number of their cell layers determined microscopically from serial sections. The extent of the antiarteriosclerotic action is established by comparison with untreated control animals. Verapamil and gallopamil are used as comparative substances.

[2] = test system: atheromas (carotid artery); assay: as above; type: in vivo, male rabbits; settings: for Maximum number of cell layers in the atheromas / Maximum number of cell layers in the atheromas, % change: 28 days; for Maximum number of cell layers in the atheromas, % change: vs untreated control; for Action against arteriosclerosis (in words): general statement; for Inhibition of the development of atheromas (in words): compared with verapamil
Protocol: as §1

[3] = rabbits, highest tolerated daily dose 2 × 0.215 mg/kg s.c. + 4.64 mg/kg oral
[4] = rabbits, daily dose 2 × 1.0 mg/kg s.c. + 21.5 mg/kg oral, verapamil, nor-gallopamil *P < 0.05, nor-verapamil P = 0.682
[5] = rabbits, daily dose 2 × 1.0 mg/kg s.c. + 21.5 mg/kg oral

Structure (SMILES) | MTD at 672 h [1] [mg/kg] | Antiatherogenic effect (in words) ([2]; rabbits, at the highest tolerated daily dose) | Maximum number of cell layers in the atheromas [2, 3] | Maximum number of cell layers in the atheromas, % change [2, 3] | Action against arteriosclerosis (in words) [2] | Inhibition of the development of atheromas (in words) ([2]; rabbits) | Maximum number of cell layers in the atheromas [2, 4] | Maximum number of cell layers in the atheromas, % change [2, 5] [%]
COc1ccc(CCN(C)CCCC(C#N)(c2cc(OC)c(OC)c(OC)c2)C(C)C)cc1OC (centres unmarked) [Gallopamil, 5-[N-(3,4-dimethoxyphenethyl)-N-methylamino]-2-(3,4,5-trimethoxyphenyl]-2-isopropyl-valeronitrile] | 4.64 | no antiatherogenic effect | 15 ± 0.99 | +7.1% | – | – | – | –
COc1ccc(CCNCCCC(C#N)(c2cc(OC)c(OC)c(OC)c2)C(C)C)cc1OC (centres unmarked) [Nor-gallopamil] | – | – | – | – | very good action against arteriosclerosis | inhibit the development of atheromas to about the same extent as verapamil | 12 ± 1.3 | -44
COc1ccc(CCNCCCC(C#N)(c2ccc(OC)c(OC)c2)C(C)C)cc1OC (centres unmarked) [Nor-verapamil, 5-[N-(3,4-dimethoxyphenethyl)-amino]-2-(3,4-dimethoxyphenyl)-2-isopropyl-valeronitrile] | – | – | – | – | very good action against arteriosclerosis | inhibit the development of atheromas to about the same extent as verapamil | 8.1 ± 1.3 | -40
COc1ccc(CCN(C)CCCC(C#N)(c2ccc(OC)c(OC)c2)C(C)C)cc1OC (centres unmarked) [Verapamil, 5-[N-(3,4-dimethoxyphenethyl)-N-methylamino]-2-(3,4-dimethoxyphenyl)-2-isopropyl-valeronitrile] | – | – | – | – | – | – | 3.8 ± 0.37 | -51
